Assay results: patent US9512156B2, “Carbon monoxide releasing rhenium compounds for medical use” (UNIVERSITY OF ZURICH, priority 2010, dated 2016)

Assays:
[1] = Deoxygenation of cell-free incubation medium; conditions: within minutes after administration, dose-dependent (FIG. 9A: 60 μM, 10 min)
From the text: Therefore, the effect of the three selected CO-RMs on oxygen consumption by NRCs was investigated.

[2] = system: horse skeletal myoglobin (Mb); test: Detection of CO release using the myoglobin assay (conversion of Mb to MbCO); assay type: biochemical; conditions: pH 7.4, 25° C.
Protocol: Changes in the Mb spectra were recorded over time at 25° C. The methanol or DMSO content of the solution never exceeded 0.5%. […] The MbCO concentration was plotted over time and directly related to the equivalents of CO released from the compounds. The half-life of CO release from the Re compounds at different pH's was then estimated from the graphs. Control experiments were run under identical conditions but without addition of the metal complexes. All manipulations were performed under a pure N2 atmosphere in a wet box.
The final methanol or DMSO content of the buffered aqueous solution never exceeded 0.5%. The conversion of Mb to carbon monoxide myoglobin (MbCO) was followed over time by measuring the changes in the absorption spectra of the Q band region of this protein at pH 7.4, 6.3 and 5.8 after addition of the Re^II complex.
The amount of MbCO formed over time after addition of the Re complex to the Mb solution was calculated according to the known extinction coefficients. The MbCO concentration was directly related to the equivalents of CO released from the compounds and these were plotted as a function of time.

[3] = system: intracellular reduced glutathione (GSH) in NRCs; test: Intracellular reduced glutathione (GSH) in NRCs after ischemia and 10 min of reperfusion; assay type: cell-based, rat; conditions: 30 μM, 10 min after the onset of reperfusion
Protocol: FIG. 9. Regulation of oxygen availability and the intracellular reduced glutathione content by Re-CORMs. A: Reduction in oxygen content in the incubation medium within 10 min after addition of 60 μM of 2, 6 and B12-CORM-2; N=6-8. Given are means±SEM. B: Intracellular reduced glutathione (GSH) content in NRCs exposed to 16 h of ischemia and 10 min of reperfusion in the presence or absence of CO-RMs. N=4 Data are means±SEM.
Oxidative stress triggered by acute hyperoxygenation is a hallmark of reperfusion injury. Based on the findings presented in FIG. 9A selected CORMs may be viewed as oxygen scavengers which, when applied early on during reperfusion, may reduce the cellular oxidative damage. To test this hypothesis intracellular reduced glutathione (GSH) levels were determined in cells 10 min after the “onset of reperfusion” in the presence or absence of 30 μM 2, 6 and B12-CORM-2. […] (FIG. 9B). This acute antioxidative effect of 2 most likely reflects the ability of the intermediates formed upon CO release to react with oxygen forming ReO4^−.

[4] = Solubility in water and organic solvents; assay type: physicochemical
[5] = system: neonatal rat cardiomyocyte (NRC); test: Cytotoxicity towards neonatal rat cardiomyocytes under normal conditions; assay type: cell-based; conditions: normal physiological conditions, up to a tested concentration of 120 μM
Protocol: B12-CORM-2 and 4 (Scheme 3) were tested for their cytotoxic and their cytoprotective effects using the neonatal rat cardiomyocyte (NRC) cell-based model of ischemia-reperfusion injury (I/R) as previously described (Zobi et al., Inorg. Chem. 2010, 49, 7313-7322). The membrane-impermeable ReII-CORMs studied so far were non-toxic in the micromolar concentration range. To test for the possible uptake of B12-CO-RMs by cells incubation of NRCs with 30 μM of B12-CORM-2 and 4 was performed and cell culture medium samples were collected over 180 min of incubation. […] The fraction of dead cells tended to decrease in the presence of CORMs, but, due to the high variability, the differences were not statistically significant (2.7±1.7% in control vs 1.1±0.3 and 1.0±0.2 in the presence of B12-CORM-2 and B12-CORM-4 respectively).

[6] = system: neonatal rat ventricular cardiomyocytes (NRCs); conditions: Zobi et al., Inorg. Chem. 2010, 49, 7313-7322; cited from earlier work
[7] = Stability under aerobic conditions (solid, solution); assay type: physicochemical

Row | Compound | cytotoxicity towards NRCs [5] | cytoprotective effects against I/R injury [6] | stability as solids under aerobic conditions [7] | other results
1 | CC[N+](CC)(CC)CC.CC[N+](CC)(CC)CC.[Br][Re-2]([Br])([Br])[Br].[C-]#[O+].[C-]#[O+] [Compound 2, [Et4N]2[Re^IIBr4(CO)2]] | no cytotoxicity | substantial cytoprotective effects | – | deoxygenation of the cell-free medium [1]: resulted in deoxygenation; time to saturation of Mb with CO liberated from the compound [2]: ≤ 30 min; intracellular reduced glutathione (GSH) levels [3]: increase; solubility in water [4]: well soluble in water
2 | Cn1ccnc1.Cn1ccnc1.[Br][Re][Br].[C-]#[O+].[C-]#[O+] [Compound 3, [ReBr2(CO)2(MeIm)2]] | – | – | slowly decomposed over time | –
3 | [Br][Re][Br].[C-]#[O+].[C-]#[O+].c1ccc2[nH]cnc2c1.c1ccc2[nH]cnc2c1 [Compound 4, [ReBr2(CO)2(BzIm)2]] | – | – | indefinitely stable | –
4 | Cc1ccncc1.Cc1ccncc1.[Br][Re][Br].[C-]#[O+].[C-]#[O+] [Compound 5, [ReBr2(CO)2(4-pic)2]] | – | – | indefinitely stable | –
5 | [Br][Re]([Br])([n+]1cc[nH]c1)[n+]1cc[nH]c1.[C-]#[O+].[C-]#[O+] [Compound 6, cis-trans-[Re^II(CO)2Br2(Im)2]] | no cytotoxicity | substantial cytoprotective effects | – | –
